Read-outs that look alike come from different tables or passages of the source. Blank lines part the entries; values can stand above or below the molecule they belong to.
Assays:
IP-10 (CXCL10) = assay: IP-10 level in BEAS-2B cells infected with rhinovirus RV-16; format: cell-based, human; details: BEAS-2B cells infected with RV-16; test ingredient at 5 μM andrographolide content; control 61.99
Source text: An in vitro cell line of BEAS-2B cells can be infected with rhinovirus RV-16. The cells are then exposed to various compounds and extracts and subsequently levels of respiratory biomarker proteins can be assayed. Extracts and compounds are identified as regulating the respiratory biomarker proteins by monitoring the levels of the respiratory biomarker proteins after exposure of the infected cells to the extracts and compounds and comparing to the levels of the respiratory biomarker proteins in infected cells that have not been exposed to extracts and compounds.
In the example, the test ingredients are extracts of the herb andrographis paniculata, or its principal component, andrographolide. The test ingredients are tested at a level of 5 μM andrographolide content. The respiratory biomarker protein is IP-10 (CXCL10), a chemotactic agent.

NF-kB [1] = assay: IL1b-induced NFkB nuclear translocation (Cellomics HitKit), BEAS-2B cells; format: cell-based; details: Homo sapiens, 0.5 h, IL1b 0.5 ng/ml for 30 min, then inhibitor 30 min
Source text: (§1) Because NF-κB must be in the nucleus to induce gene expression, its translocation is a definitive measure of its activation and marks an earlier event than reporter gene expression. This assay is an example of a 96-well medium throughput technology that can detect NF-κB translocation in several cell types.
(§2) Assays may be performed in standard, high-density microplates, where measurements of the rate and extent of NF-κB translocation are made in intact cells which provides more biological representative information. Cellomics' NF-κB activation kit (Cat. No. K01-001-1) may combine fluorescent reagents and protocols for optimized sample preparation and assays, and requires no cell lysis, purification or filtration steps. After fixation, the plates are stable for extended periods, when stored light-protected at 4° C.
(§3) One may create a fully automated screen to identify compounds that inhibit or activate NF-[…]B on a cell-by-cell basis. Prepared cells can be analyzed using standard fluorescence microscopy or using Cellomics' fully automated HCS Reader with the Cytoplasm to Nucleus Translocation Bioapplication, affording automated plate handling, focusing, image acquisition, analysis, quantification, and data storage.

NF-kB [2] = assay: IL1b-induced NFkB nuclear translocation (Cellomics HitKit), A549 cells; format: cell-based; details: Homo sapiens, 0.5 h, IL1b 0.05 ng/ml for 30 min, then inhibitor 30 min
Source text: as §1, §2, §3

ovine COX-1 = biological target: T1, ovine COX-1 (Ovis aries, UniProt P05979); assay: COX Inhibitor Screening Assay (Cayman), COX-1; format: biochemical
T1 construct: purchased Cayman Chemical Company 560101
Source text: An example of a COX Inhibitor Screening Assay (Cat. No. 560101 manufactured by Cayman Chemical Company, Ann Harbor, Mich.) directly measures PGF2 produced by SnCl2 reduction of COX-derived PGH2. The prostanoid product may be quantified via enzyme immunoassay (EIA) using a broadly specific antibody that binds to all the major prostaglandin compounds. Thus, the COX assay is more accurate and reliable than an assay based on peroxidase inhibition. The Cayman COX Inhibitor Screening Assay includes both ovine COX-1 and human recombinant COX-2 enzymes in order to screen isozyme-specific inhibitors. This assay may be an excellent tool which can be used for general inhibitor screening, or to eliminate false positive leads generated by less specific methods.
(§4) Test compounds may be assayed for inhibition of prostaglandin production via contacting them individually with cells that have been infected with rhinovirus. An assay for prostaglandin is available from Cisbio International, Bedford Mass. One cell line suitable for infection by rhinovirus is A549 (ATCC designation CCL-185), a human epithelial lung carcinoma available from ATCC, Manassas, Va. […] A COX assay is available from Cayman Chemical, Ann Arbor, Mich.

human recombinant COX-2 = biological target: T2, human recombinant COX-2 (Homo sapiens, UniProt P35354); assay: biochemical; details: purified enzyme
T2 sequence (P35354 18-604): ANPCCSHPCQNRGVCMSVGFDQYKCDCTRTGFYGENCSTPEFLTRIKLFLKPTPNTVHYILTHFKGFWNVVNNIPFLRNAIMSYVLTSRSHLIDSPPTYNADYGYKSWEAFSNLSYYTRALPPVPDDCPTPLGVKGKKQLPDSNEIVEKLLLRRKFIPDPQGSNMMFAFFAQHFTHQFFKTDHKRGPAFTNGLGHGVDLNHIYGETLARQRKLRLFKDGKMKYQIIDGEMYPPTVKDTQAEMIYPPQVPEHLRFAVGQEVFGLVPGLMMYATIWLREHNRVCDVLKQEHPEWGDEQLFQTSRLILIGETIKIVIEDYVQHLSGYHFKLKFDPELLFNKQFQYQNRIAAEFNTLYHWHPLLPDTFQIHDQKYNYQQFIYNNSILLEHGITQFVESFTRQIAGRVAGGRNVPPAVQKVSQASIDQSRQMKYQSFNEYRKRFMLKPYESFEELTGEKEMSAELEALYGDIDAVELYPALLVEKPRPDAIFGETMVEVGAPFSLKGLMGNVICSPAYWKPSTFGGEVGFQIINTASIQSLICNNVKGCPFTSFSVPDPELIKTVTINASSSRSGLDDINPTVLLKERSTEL
Source text: An example of a COX Inhibitor Screening Assay (Cat. No. 560101 manufactured by Cayman Chemical Company, Ann Harbor, Mich.) directly measures PGF2 produced by SnCl2 reduction of COX-derived PGH2. The prostanoid product may be quantified via enzyme immunoassay (EIA) using a broadly specific antibody that binds to all the major prostaglandin compounds. […] The Cayman COX Inhibitor Screening Assay includes both ovine COX-1 and human recombinant COX-2 enzymes in order to screen isozyme-specific inhibitors.
An assay for prostaglandin is available from Cisbio International, Bedford Mass. One cell line suitable for infection by rhinovirus is A549 (ATCC designation CCL-185), a human epithelial lung carcinoma available from ATCC, Manassas, Va. […] A COX assay is available from Cayman Chemical, Ann Arbor, Mich.

PGE2 formation = PGE2 formation in cells infected with rhinovirus (Cisbio HTRF assay); format: cell-based, human
Source text: There are several standard methods available for quantifying PGE2. The HTRF® PGE2 assay (developed by Cisbio International, Cat. No. 62P2APEB) is an example of a highly sensitive method for quantifying PGE2. Its principle is based on HTRF technology (Homogeneous Time-Resolved Fluorescence). It can be performed either in cell supernatants or directly in the presence of whole cells. This method is a competitive immunoassay in which native PGE2 produced by cells, and d2-labelled PGE2 compete for binding to MAb anti-PGE2 labeled with cryptate. The HTRF signal is inversely proportional to the concentration of PGE2 in the calibrator or in the sample. The incubation time and temperature following addition of the HTRF detection reagents has little effect on the assay results providing another level of assay flexibility.
Briefly, consecutive dilutions (within the 0-5000 pg/ml range) of samples may be prepared with the diluent. The reagents are dispensed (as outlined in the protocol) into a 384-well low volume plate (20 ul). Negative and positive controls are included. The plate is covered with a plate sealer and incubated for 5 hours at room temperature or overnight at 4° C. Free PGE2 from the sample competes with […] for binding to the Cryptate conjugated anti-PGE2 antibody. Then the plate is read on a compatible HTRF reader.
as §4

T1 sequence (P05979 25-600): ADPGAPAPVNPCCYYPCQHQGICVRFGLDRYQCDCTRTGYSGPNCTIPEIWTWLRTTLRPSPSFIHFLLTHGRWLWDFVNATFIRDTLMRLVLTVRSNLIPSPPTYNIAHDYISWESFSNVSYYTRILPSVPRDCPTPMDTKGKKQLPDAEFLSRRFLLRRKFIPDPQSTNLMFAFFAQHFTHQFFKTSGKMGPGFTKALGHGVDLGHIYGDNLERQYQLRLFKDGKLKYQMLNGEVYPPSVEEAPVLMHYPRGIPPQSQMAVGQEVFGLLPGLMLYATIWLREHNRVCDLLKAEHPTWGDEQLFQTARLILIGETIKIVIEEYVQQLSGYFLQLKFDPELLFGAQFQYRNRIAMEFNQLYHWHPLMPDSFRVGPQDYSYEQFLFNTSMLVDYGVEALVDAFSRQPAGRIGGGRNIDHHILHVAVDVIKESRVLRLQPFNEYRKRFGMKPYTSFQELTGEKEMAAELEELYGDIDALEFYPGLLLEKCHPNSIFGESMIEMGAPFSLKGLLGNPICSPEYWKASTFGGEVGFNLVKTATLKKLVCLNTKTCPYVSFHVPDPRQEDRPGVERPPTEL

Compound: C=C1CC[C@@H]2[C@](C)(CO)[C@H](O)CC[C@@]2(C)[C@@H]1C/C=C1/C(=O)OC[C@H]1O [Andrographolide, andrographolide]
IP-10 (CXCL10) (IP-10 (CXCL10)): 18.07 pg/mL

IC50 (NF-kB [1]): 5.9 µM
IC50 (NF-kB [2]): 37.5 µM
Compound: COc1cc(/C=C/C(=O)CC(=O)/C=C/c2ccc(O)c(OC)c2)ccc1O [Curcumin, curcumin]

Compound: CCCc1ccc(O)c(OC)c1 [DIHYDROEUGENOL, dihydroeugenol]
IC50 (ovine COX-1; purified enzyme, read-out: IC50 COX-1 activity): 82 µM
IC50 (human recombinant COX-2): 75 µM
IC50 (PGE2 formation; cells infected with rhinovirus (A549 named as suitable line), read-out: IC50 PGE2 formation): 0.38 µM

Compound: CCOc1ccc2c(c1)C(C)=CC(C)(C)N2 [ETHOXYQUIN, ethoxyquin]
IC50 (ovine COX-1): 459 µM
IC50 (human recombinant COX-2): 54 µM
IC50 (PGE2 formation; Homo sapiens, cells infected with rhinovirus (A549 named as suitable line), read-out: IC50 PGE2 formation): 0.03 µM

Compound: C=CCc1ccc(O)c(OC)c1 [EUGENOL, eugenol]
IC50 (ovine COX-1): 42 µM
IC50 (PGE2 formation; Homo sapiens, A549, read-out: IC50 PGE2 formation): 0.42 µM

From US20090155180A1, “Methods and targets for identifying compounds for regulating rhinovirus infection” (priority 2007, published 2009)
